{"source": "paper PMC12794186", "about": "“Covalent Alkynylpyridopyrimidinones Targeting Cysteine 775 of the Epidermal Growth Factor Receptor Overcome Resistance to Current Therapies” (Journal of Medicinal Chemistry, 2025)", "key": {"[1]": {"biological_target": "recombinant doubly mutated EGFR L858R, T790M kinase domain (mLT-EGFR) (Homo sapiens, UniProt P00533, L858R/T790M)", "experiment": "Kinetic analysis (AssayQuant)", "assay_type": "biochemical", "settings": "read-out: KI app", "description": "Measurement of K I, K inact and K inact/K I was carried out by AssayQuant Technologies inc."}, "[2]": {"test_system": "EGFR phosphorylation (Tyr1068) in H1975 (L858R, T790M) cells", "experiment": "HTRF cellular EGFR phosphorylation", "assay_type": "cell-based", "settings": "Homo sapiens, NCI-H1975; HTRF, mean ± SD of 4 experiments; read-out: H1975 pEGFR IC50", "description": "Cells were plated at 20,000 cells per well in 96-well plates and placed at 37 °C with 5% CO2. Compounds were reconstituted in DMSO. Once adhered (after 24 h), cells were treated with compounds at a final concentration of 0.1% DMSO in media. Compounds were added to duplicate wells and incubated 37 °C for 3 h with 5% CO2. For A431 cells 0.5 h before the end of incubation; 100 ng/mL of EGF (Thermo Fisher, Cat. No. PHG0311) was added to all compound-treated cells as well as control. Compound and media were removed from the cells, and then 50 μL of HTRF lysis buffer was added (lysis buffer was diluted from 4× stock to 1× in deionized (DI) water, with 1% blocking agent also added). Cells were lysed on a plate shaker (2000 rpm) for 30 min at room temperature. pEGFR expression was assessed using the Human Phospho-EGFR (Tyr1068) cellular detection kit (Revvity, Cat. No. 64EG1PEH). Total EGFR expression was monitored using the Human Total EGFR cellular detection kit (Revvity, Cat. No. 64NG1PEH) as per the manufacturer’s instructions. […] Results were calculated as the ratio of pEGFR/total EGFR and then the percentage of 0 μM control."}, "[3]": {"test_system": "EGFR phosphorylation (Tyr1068) in A431 (WT-EGFR) cells", "experiment": "HTRF cellular EGFR phosphorylation", "assay_type": "cell-based", "settings": "Homo sapiens, A-431, mean ± SD of 4 experiments, read-out: A431 pEGFR IC50", "description": "Cells were plated at 20,000 cells per well in 96-well plates and placed at 37 °C with 5% CO2. Compounds were reconstituted in DMSO. Once adhered (after 24 h), cells were treated with compounds at a final concentration of 0.1% DMSO in media. Compounds were added to duplicate wells and incubated 37 °C for 3 h with 5% CO2. For A431 cells 0.5 h before the end of incubation; 100 ng/mL of EGF (Thermo Fisher, Cat. No. PHG0311) was added to all compound-treated cells as well as control. Compound and media were removed from the cells, and then 50 μL of HTRF lysis buffer was added (lysis buffer was diluted from 4× stock to 1× in deionized (DI) water, with 1% blocking agent also added). Cells were lysed on a plate shaker (2000 rpm) for 30 min at room temperature. pEGFR expression was assessed using the Human Phospho-EGFR (Tyr1068) cellular detection kit (Revvity, Cat. No. 64EG1PEH). Total EGFR expression was monitored using the Human Total EGFR cellular detection kit (Revvity, Cat. No. 64NG1PEH) as per the manufacturer’s instructions. Fluorescence emission was read at two different wavelengths (665 and 620 nm) on a PHERAstar microplate reader (BMG Labtech). Results were calculated as the ratio of pEGFR/total EGFR and then the percentage of 0 μM control."}, "[4]": {"test_system": "EGFR phosphorylation (Tyr1068) in H1975 (L858R, T790M) cells", "experiment": "Western blot of EGFR phosphorylation", "assay_type": "cell-based", "settings": "H1975, 4 h exposure"}, "[5]": {"test_system": "BaF3 EGFR L858R/T790M cells", "experiment": "Ba/F3 growth inhibition (CellTiter Glo)", "assay_type": "cell-based, Murine", "settings": "BaF3, absence of IL-3, 72 h, read-out: LT: L858R/T790M GI50", "description": "(§1) Growth inhibition in Ba/F3 cell lines were assessed in a 384-well format by CellTiter Glo assay (Promega) using the manufacturer’s recommended protocol. Cells were seeded on the day of compound addition and assessed following 72 h incubation including a vehicle only control. Ba/F3 EGFR-WT cells required supplementation with EGF (100 ng/mL, ThermoFisher, Cat No. PHG0311)."}, "[6]": {"test_system": "BaF3 EGFR L858R/T790M/C775A cells", "experiment": "Ba/F3 growth inhibition (CellTiter Glo)", "assay_type": "cell-based, Murine", "settings": "Mus musculus, BaF3, absence of IL-3, 72 h, read-out: LTC2: L858R/T790M/C775A GI50", "description": "as §1"}, "[7]": {"test_system": "BaF3 EGFR WT cells", "experiment": "Ba/F3 growth inhibition (CellTiter Glo)", "assay_type": "cell-based, Murine", "settings": "Mus musculus, 72 h", "description": "as §1"}, "[8]": {"test_system": "BaF3 EGFR del19/T790M cells", "experiment": "Ba/F3 growth inhibition (CellTiter Glo)", "assay_type": "cell-based, Murine", "settings": "Mus musculus, BaF3, absence of IL-3, 72 h, read-out: dT: del19/T790M GI50", "description": "as §1"}, "[9]": {"biological_target": "mLTC-EGFR (Homo sapiens, UniProt P00533, C797S/L858R/T790M)", "experiment": "Intact protein mass spectrometry, covalent adduct formation", "assay_type": "binding", "settings": "intact protein mass spectrometry"}, "[10]": {"test_system": "panel of 394 kinases", "experiment": "Kinase selectivity panel, summary", "assay_type": "binding", "settings": "1.0 μM"}, "[11]": {"test_system": "FLT3", "experiment": "Kinase selectivity panel", "assay_type": "binding", "settings": "1.0 µM"}, "[12]": {"test_system": "TYK2", "experiment": "Kinase selectivity panel", "assay_type": "binding", "settings": "1.0 µM"}}, "note": "Like-named read-outs stand apart in the source and are kept apart here."}
{"smiles": "C#Cc1cc(=O)n(-c2ccccc2)c2nc(Nc3ccc(N(C)CCN(C)C)cc3)ncc12", "note": "[Compound 7, 2-((4-((2-(Dimethylamino)ethyl)(methyl)amino)phenyl)amino)-5-ethynyl-8-phenylpyrido[2,3-d]pyrimidin-7(8H)-one]", "values": [{"measurement": "Ki", "setting": "[1]", "result": "22 ± 1.3", "unit": "nM"}, {"measurement": "IC50", "setting": "[2]", "result": "140 ± 21", "unit": "nM"}, {"measurement": "IC50", "setting": "[3]", "result": 4.1, "unit": "µM"}, {"measurement": "concentration eliciting dose-dependent reduction in EGFR phosphorylation (Western blot)", "setting": "[4]", "result": "≥ 100", "unit": "nM"}, {"measurement": "GI50", "setting": "[5]", "result": "< 100", "unit": "nM"}, {"measurement": "GI50", "setting": "[5]; Mus musculus, Ba/F3 EGFR, 72 h", "result": "50 ± 3.2", "unit": "nM"}, {"measurement": "GI50", "setting": "[6]", "result": 1500, "unit": "nM"}, {"measurement": "GI50", "setting": "[7]", "result": 1100, "unit": "nM"}, {"measurement": "GI50", "setting": "[8]", "result": "49 ± 6", "unit": "nM"}, {"measurement": "covalent adduct formation, in words", "setting": "[9]", "result": "formed only a single adduct"}, {"measurement": "number of kinases showing >75% inhibition", "setting": "[10]", "result": 10}, {"measurement": "Mean (Percent Control)", "setting": "[11]", "result": 15, "unit": "Percent Control"}, {"measurement": "Mean (Percent Control)", "setting": "[12]", "result": 58.5, "unit": "Percent Control"}]}
